A word on the Cmax: it is the maximum level reached in the sampled fluid or tissue. One may read the Tmax as the time from dosing to the highest level. What is called AUC(0-inf) is the area under the concentration-time curve extrapolated to infinity. Usually half-life stands for the time in which the quantity being followed falls by half.

Counter-ions that a name gives are not always drawn. Like-named read-outs stand apart in the source and are kept apart here.

The data set can be described thus: Pharmacokinetic study of Icotinib hydrochloride and Polymorph Form II of Icotinib phosphate, oral suspension in fasted SD rats. Conditions: dose equivalent to 50 mg/kg Icotinib, plasma; for AUC(0-t): read-out: AUC(0-24). The class given is in vivo. The text has this:
Drugs and reagents: The Icotinib hydrochloride used in this study was of Crystalline Form I disclosed by the WO2010/003313. Polymorph Form II of Icotinib phosphate and Icotinib hydrochloride were ground to fine particles. The material content (purity) was not less than 99.0%. Sodium carboxymethyl cellulose was medical supply graded.
Experimental animals: SD rats were divided to an Icotinib hydrochloride group and a Polymorph Form II group, with both groups consisting of half males and half females.
Pharmaceutical preparation: the amount of each compound was weighed and then sodium carboxymethyl cellulose was added to result in the test compound's concentration of 0.5%. The solid mixture was then added to prepare a suspension thereof at a final concentration of […] in water.
Administration and sample collection: each suspension was administered orally to fasted SD rats at a dose equivalent to 50 mg/kg Icotinib in a dose volume of 5 ml/kg. 0.4 ml of blood was collected in EDTA-K pre anticoagulant tubes at time intervals of 0.5, 1, 1.5, 2, 4, 6, 8 and 24 hrs after the administration of the test compound, centrifuged at 3000 rpm for 10 minutes, and 120 μL plasma was collected and kept in cold storage.
Samples were analyzed by high performance liquid chromatography. The chromatographic conditions utilized C18-silane bonded silica as stationary phase, 0.02 mol/L of sodium dihydrogen phosphate in […] (40:60, using sodium hydroxide solution to adjust pH to 5.0) as the mobile phase and a detection wavelength of 334 nm. PK profile comparison of Crystalline Form I of Icotinib Hydrochloride and Polymorph Form II of Icotinib phosphate was summarized in Table 1 and FIG. 5.

Setting [1] is: male, SD, rat, po, 50 mg/kg, male SD rats.
The mark [2] stands for this setting: female, SD, rat, po, 50 mg/kg, female SD rats.

Turning to `C#Cc1cccc(Nc2ncnc3cc4c(cc23)OCCOCCOCCO4)c1` [Icotinib Phosphate polymorph form II, Icotinib phosphate], where the note is “female SD rats”, the “AUC(0-24)” value amounted to 155200 ± 20200 ng·h/mL, the “AUC(0-∞)” value turned out to be 156700 ± 17800 ng·h/mL, the Cmax is 13100 ± 2400 ng/mL and the T1/2 is 2.9 ± 0.4 h. Further, the Tmax (female SD rats) was 4.7 ± 1.2 h. Where the note is “male SD rats”, the T1/2 turned out to be 2.6 ± 0.2 h and the Tmax is listed as 2.3 ± 1.5 h. Moreover, under setting [1], the AUC(0-inf) amounted to 28700 ± 8100 ng·h/mL and the AUC(0-t) is 28600 ± 8100 ng·h/mL.
`C#Cc1cccc(Nc2ncnc3cc4c(cc23)OCCOCCOCCO4)c1` [Icotinib hydrochloride]: under “female SD rats, hydrochloride”, the T1/2 was 6.2 ± 3.5 h. Besides, under setting [2], the AUC(0-inf) amounted to 124000 ± 13000 ng·h/mL and the AUC(0-t) worked out at 113000 ± 24000 ng·h/mL. In addition, the Cmax (female, SD, rat, po, 50 mg/kg, female SD rats, read-out: Cmax) turned out to be 10200 ± 1900 ng/mL. In addition, the Tmax (female, SD, rat, po, 50 mg/kg, female SD rats, read-out: Tmax) was 3 ± 1.7 h. Under “male SD rats, hydrochloride”, the “AUC(0-24)” value was 19000 ± 7100 ng·h/mL and the “AUC(0-∞)” value was 19100 ± 7200 ng·h/mL. In addition, the half-life under setting [1] is 2.9 ± 0.4 h. Also, the Cmax (male, SD, rat, po, 50 mg/kg, male SD rats, read-out: Cmax) was 3400 ± 400 ng/mL. Moreover, under “male, SD, rat, po, 50 mg/kg, male SD rats, read-out: Tmax”, the Tmax came out at 2.3 ± 3.2 h.

Source of the values: patent US9688687B2, “Polymorphic forms of icotinib phosphate and uses thereof” (BETTA PHARMACEUTICALS CO., LTD., priority 2013, dated 2017).
